Results: PubChem BioAssay AID1963825 (Molecular Pharmacology Branch, DTP, NCI, 2024)
Values joined by “and” are separate entries in the source; they are usually repeats but may differ in a detail not shown here. Equal values may be shown once.

Experiment: Anticancer human tumor 997537-175-T-J1-PDC patient-derived colon adenocarcinoma cell line growth inhibition [POLQ]
Settings: 997537-175-T-J1-PDC complex spheroid viability, combination with POLQ inhibitors; for viability, T/C: stronger effect = lower value
Protocol: Multicellular complex tumor spheroid response to Polymerase (POL) inhibitors (novobiocin, ART-558, RP6685) in combination with a variety of drugs and investigational agents in selected tumor cell lines
The POL inhibitors (novobiocin, ART-558, and RP6685) were evaluated both individually and in combination with standard of care and investigational anticancer small molecules within a complex spheroid model of solid tumors. . Complex spheroids include a stromal component modeled by human endothelial cells (HUVEC) and fibroblasts modeled by human mesenchymal stem cells (MSCs). The concentration ranges selected for each drug and investigational agent were based upon clinically achievable concentrations if the clinical Cmax of the agent was known.
Compounds. The drugs and investigational agents: novobiocin (NSC847541), ART-558 (NSC835418), RP-6685 (NSC848927), peposertib (NSC802822), ceralasertib (NSC780249), elimusertib (NSC800525), camonsertib (NSC841442), AZD-1390 (NSC803789), olaparib (NSC753686), talazoparib (NSC767125), rucaparib (NSC756644), sotorasib (NSC818433), MRTX-1133 (NSC836407), SN-38 (NSC673596), topotecan (NSC609699), epotoside (NSC141540), doxorubicin (NSC123127), gemcitabine (NSC613327), 5-fluorouracil (NSC19893), paclitaxel (NSC125973), vemurafenib (NSC761431), MSA-2 (NSC828583), SN-011 (NSC837082), adavosertib (NSC754352), prexasertib (NSC758257), carboplatin (NSC241240) and oxaliplatin (NSC266046), were obtained from the National Cancer Institute (NCI) Developmental Therapeutics Program Chemical Repository (21). The FDA-approved anticancer drug set is available from the Developmental Therapeutics Program at https://dtp.cancer.gov/organization/dscb/obtaining/. […] The stock solutions were prepared in dimethyl sulfoxide (DMSO, Sigma-Aldrich, St. Louis, MO, cat. D2650), except for the platinum compounds which were prepared in saline (Quality Biological, Gaithersburg, MD, cat. 114-055-101), at 800-fold the tested concentration and stored at -70 degrees C prior to their use. All drugs and investigational agents were tested over a range starting from a high concentration at or near the clinical Cmax and decreasing in half-log increments. If the clinical Cmax for an agent had not been determined, the highest concentration tested was 10 microM, except for SN-38, which was tested at a high concentration of 1 microM.
Cell Culture. All cells were maintained in an incubator at 37 degrees C and 5% CO2 with 95% humidity. The PDC lines were cultured according to standard operating procedures established by the NCI PDMR (https://pdmr.cancer.gov). Table 3 of the manuscript, lists the cell lines along with the number of the three cell types plated to form the mct-spheroids and media for tumor cell growth. After thawing, all PDC lines, except 997537-175-T-J1-PDC and 415267-285-R-J2-PDC, were cultured in Matrigel-coated flasks prepared with a working solution of 1X Ham's F-12 nutrient mix, without supplementation (Thermo Fisher Scientific, cat. 11765054), 100 U/mL penicillin-streptomycin (Thermo Fisher Scientific, cat. 15140122), and 2.5% Matrigel (Corning Inc., Corning, NY, cat. 354248) for the first three passages. The two PDC lines 997537-175-T-J1-PDC and 415267-285-R-J2-PDC were cultured on uncoated flasks. The 857933-349-R-J2-PDC line was cultured in 6C/Colon 1B media containing advanced DMEM/F-12 (Thermo Fisher Scientific, cat. 12634028), 10 mM HEPES (Thermo Fisher Scientific, cat. 15630080), 1X GlutaMAX supplement (Thermo Fisher Scientific, cat. 35050061), 0.1 mg/mL primocin (InvivoGen, San Diego, CA, cat. ant-pm-2), 10% defined fetal bovine serum, heat inactivated (HyClone Laboratories Inc., Logan, UT, cat. SH30070.03HI), 50% L-WRN conditioned media (ATCC, cat. CRL-3276), 1.25 mM N-Acetyl-L-cysteine (Sigma-Aldrich, cat. A9165), 10 mM nicotinamide (Sigma-Aldrich, cat. N0636), 1X B-27 supplement (Thermo Fisher Scientific, cat. 17504044), 1X N-2 supplement (Thermo Fisher Scientific, cat. […]

[1] = curve of first compound, second compound 0.0316 µM
[2] = curve of first compound, second compound 0.1 µM
[3] = curve of first compound, second compound 0.316 µM
[4] = curve of first compound, second compound 1 µM
[5] = curve of first compound, second compound 3.16 µM
[6] = curve of first compound, second compound 10 µM
[7] = second compound 0.0316 µM, first compound 0.0316 µM
[8] = second compound 0.0316 µM, first compound 0.1 µM
[9] = second compound 0.0316 µM, first compound 0.316 µM
[10] = second compound 0.0316 µM, first compound 1 µM
[11] = second compound 0.0316 µM, first compound 3.16 µM
[12] = second compound 0.0316 µM, first compound 10 µM
[13] = second compound 0.1 µM, first compound 0.0316 µM
[14] = second compound 0.1 µM, first compound 0.1 µM
[15] = second compound 0.1 µM, first compound 0.316 µM
[16] = second compound 0.1 µM, first compound 1 µM
[17] = second compound 0.1 µM, first compound 3.16 µM
[18] = second compound 0.1 µM, first compound 10 µM
[19] = second compound 0.316 µM, first compound 0.0316 µM
[20] = second compound 0.316 µM, first compound 0.1 µM
[21] = second compound 0.316 µM, first compound 0.316 µM
[22] = second compound 0.316 µM, first compound 1 µM
[23] = second compound 0.316 µM, first compound 3.16 µM
[24] = second compound 0.316 µM, first compound 10 µM
[25] = second compound 1 µM, first compound 0.0316 µM
[26] = second compound 1 µM, first compound 0.1 µM
[27] = second compound 1 µM, first compound 0.316 µM
[28] = second compound 1 µM, first compound 1 µM
[29] = second compound 1 µM, first compound 3.16 µM
[30] = second compound 1 µM, first compound 10 µM
[31] = second compound 3.16 µM, first compound 0.0316 µM
[32] = second compound 3.16 µM, first compound 0.1 µM
[33] = second compound 3.16 µM, first compound 0.316 µM
[34] = second compound 3.16 µM, first compound 1 µM
[35] = second compound 3.16 µM, first compound 3.16 µM
[36] = second compound 3.16 µM, first compound 10 µM
[37] = second compound 10 µM, first compound 0.0316 µM
[38] = second compound 10 µM, first compound 0.1 µM
[39] = second compound 10 µM, first compound 0.316 µM
[40] = second compound 10 µM, first compound 1 µM
[41] = second compound 10 µM, first compound 3.16 µM
[42] = second compound 10 µM, first compound 10 µM
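Also: luminescence signal used as a surrogate for viable cells; spheroids exposed to drugs for seven days before readout.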

COc1cc2cc(C(=O)CCC(=O)O)sc2cc1OC + Cc1cccc(N(C)C(=O)C2C(O)CCN2c2nc(C)cc(C(F)(F)F)c2C#N)c1
IC50 [1]: > 10 µM | IC50 [2]: > 10 µM | IC50 [3]: > 10 µM | IC50 [4]: > 10 µM | IC50 [5]: > 10 µM | IC50 [6]: > 10 µM | viability, T/C [7]: 110% | viability, T/C [8]: 102% | viability, T/C [9]: 99.3% | viability, T/C [10]: 111% | viability, T/C [11]: 98.4% | viability, T/C [12]: 88.3% | viability, T/C [13]: 98.7% | viability, T/C [14]: 120% | viability, T/C [15]: 94.7% | viability, T/C [16]: 105% | viability, T/C [17]: 99.3% | viability, T/C [18]: 93.3% | viability, T/C [19]: 105% | viability, T/C [20]: 97.7% | viability, T/C [21]: 87.5% | viability, T/C [22]: 80.8% | viability, T/C [23]: 98.6% | viability, T/C [24]: 93.6% | viability, T/C [25]: 108% | viability, T/C [26]: 90.5% | viability, T/C [27]: 105% | viability, T/C [28]: 102% | viability, T/C [29]: 101% | viability, T/C [30]: 92.8% | viability, T/C [31]: 94.5% | viability, T/C [32]: 121% | viability, T/C [33]: 90.5% | viability, T/C [34]: 96.2% | viability, T/C [35]: 115% | viability, T/C [36]: 97.8% | viability, T/C [37]: 98% | viability, T/C [38]: 104% | viability, T/C [39]: 107% | viability, T/C [40]: 105% | viability, T/C [41]: 118% | viability, T/C [42]: 87.3%

COc1ccc([C@@H](O)c2cc(-c3ncnc4cc(N5CCOCC5)ccc34)c(F)cc2Cl)nn1
viability, T/C (compound 0.0316 µM): 107% and 102% and 108% | viability, T/C (compound 0.1 µM): 103% and 94.5% and 93.7% | viability, T/C (compound 0.316 µM): 90.6% and 96.5% and 106% | viability, T/C (compound 1 µM): 100% and 105% and 104% | viability, T/C (compound 3.16 µM): 94.8% and 87.4% and 97.1% | viability, T/C (compound 10 µM): 83.2% and 80.4% and 92% | IC50 (curve of compound): > 10 µM

COc1cc2cc(C(=O)CCC(=O)O)sc2cc1OC + Nc1ccc(C#CCN(C(=O)Cc2ncc(C(F)(F)F)cc2C(F)(F)F)c2ccc(F)cc2)nn1
IC50 [1]: > 10 µM | IC50 [2]: > 10 µM | IC50 [3]: > 10 µM | IC50 [4]: > 10 µM | IC50 [5]: > 10 µM | IC50 [6]: > 10 µM | viability, T/C [7]: 107% | viability, T/C [8]: 107% | viability, T/C [9]: 109% | viability, T/C [10]: 99.7% | viability, T/C [11]: 96.8% | viability, T/C [12]: 96.7% | viability, T/C [13]: 91.2% | viability, T/C [14]: 102% | viability, T/C [15]: 98.2% | viability, T/C [16]: 108% | viability, T/C [17]: 101% | viability, T/C [18]: 105% | viability, T/C [19]: 99.1% | viability, T/C [20]: 105% | viability, T/C [21]: 109% | viability, T/C [22]: 98% | viability, T/C [23]: 91.8% | viability, T/C [24]: 95.4% | viability, T/C [25]: 94.4% | viability, T/C [26]: 89.5% | viability, T/C [27]: 82% | viability, T/C [28]: 105% | viability, T/C [29]: 96.5% | viability, T/C [30]: 89.9% | viability, T/C [31]: 105% | viability, T/C [32]: 101% | viability, T/C [33]: 97.5% | viability, T/C [34]: 86.1% | viability, T/C [35]: 100% | viability, T/C [36]: 92.5% | viability, T/C [37]: 101% | viability, T/C [38]: 91.4% | viability, T/C [39]: 106% | viability, T/C [40]: 111% | viability, T/C [41]: 101% | viability, T/C [42]: 107%
